Molecular target: T1, rat CB2 receptor (rCB2) (Rattus norvegicus, UniProt Q9QZN9)
T1 sequence (Q9QZN9 1-360): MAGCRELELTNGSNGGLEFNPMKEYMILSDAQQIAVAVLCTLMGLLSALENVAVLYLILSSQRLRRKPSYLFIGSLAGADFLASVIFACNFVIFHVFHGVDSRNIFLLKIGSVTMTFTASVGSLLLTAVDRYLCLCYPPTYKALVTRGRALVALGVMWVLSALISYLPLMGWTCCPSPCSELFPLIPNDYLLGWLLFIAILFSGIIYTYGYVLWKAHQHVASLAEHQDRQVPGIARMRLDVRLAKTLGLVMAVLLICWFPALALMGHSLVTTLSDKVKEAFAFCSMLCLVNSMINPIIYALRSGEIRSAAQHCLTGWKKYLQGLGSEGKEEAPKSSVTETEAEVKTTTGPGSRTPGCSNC

Structure (SMILES) | EC50
CC(C)CN1CCn2c(-c3ccccc3)nc(C(=O)N[C@H](C(=O)N(C)C)C(C)(C)C)c2C1 [Compound 80, (S)-N-(1-(dimethylamino)-3,3-dimethyl-1-oxobutan-2-yl)-7-isobutyl-3-phenyl-5,6,7,8-tetrahydroimidazo[1,5-a]pyrazine-1-carboxamide] | 10 to 100 nM
CC(C)CN1CCn2c(-c3ccccc3)nc(C(=O)N[C@@H](C)c3ccccc3)c2C1 [Compound 145, (S)-7-isobutyl-3-phenyl-N-(1-phenylethyl)-5,6,7,8-tetrahydroimidazo[1,5-a]pyrazine-1-carboxamide] | 10 to 100 nM
CNC(=O)[C@@H](NC(=O)c1nc(-c2ccccc2)n2c1CN(Cc1cccn1C)CC2)C(C)(C)C [Compound 71, (S)-N-(3,3-dimethyl-1-(methylamino)-1-oxobutan-2-yl)-7-((1-methyl-1H-pyrrol-2-yl)methyl)-3-phenyl-5,6,7,8-tetrahydroimidazo[1,5-a]pyrazine-1-carboxamide] | 10 to 100 nM
CNC(=O)[C@@H](NC(=O)c1nc(-c2ccccc2)n2c1CN(CCC(C)(C)C)CC2)C(C)(C)C [Compound 54, (S)-N-(3,3-dimethyl-1-(methylamino)-1-oxobutan-2-yl)-7-(3,3-dimethylbutyl)-3-phenyl-5,6,7,8-tetrahydroimidazo[1,5-a]pyrazine-1-carboxamide] | 10 to 100 nM
Cc1noc([C@@H](NC(=O)c2nc(-c3ccccc3)n3c2CN(CC(C)C)CC3)C(C)(C)C)n1 [Compound 90, (S)-N-(2,2-dimethyl-1-(3-methyl-1,2,4-oxadiazol-5-yl)propyl)-7-isobutyl-3-phenyl-5,6,7,8-tetrahydroimidazo[1,5-a]pyrazine-1-carboxamide] | 0.1 to 10 nM
COC(=O)N1CCn2c(-c3ccc(Cl)cc3)nc(C(=O)NCCC(C)C)c2C1 [Compound 183, methyl 3-(4-chlorophenyl)-1-(isopentylcarbamoyl)-5,6-dihydroimidazol[1,5-a]pyrazine-7(8H)-carboxylate] | 10 to 100 nM
CC12CCC(C1)C(C)(C)C2NC(=O)c1nc(-c2ccccc2)n2c1CN(CCO)CC2 (stereo not shown) [Compound 143, 7-(2-hydroxyethyl)-3-phenyl-N-(1,3,3-trimethylbicyclo[2.2.1]heptan-2-yl)-5,6,7,8-tetrahydroimidazo[1,5-a]pyrazine-1-carboxamide] | 10 to 100 nM
CNC(=O)[C@@H](NC(=O)c1nc(-c2ccc(Cl)cc2F)n2c1CN(CC(C)C)CCC2)C(C)(C)C [Compound 322, (S)-3-(4-chloro-2-fluorophenyl)-N-(3,3-dimethyl-1-(methylamino)-1-oxobutan-2-yl)-8-isobutyl-6,7,8,9-tetrahydro-5H-imidazo[1,5-a][1,4]diazepine-1-carboxamide] | 10 to 100 nM
CNC(=O)[C@@H](NC(=O)c1nc(-c2ccccc2)n2c1CN(S(=O)(=O)c1ccc(Cl)cc1)CC2)C(C)(C)C [Compound 106, (S)-7-(4-chlorophenylsulfonyl)-N-(3,3-dimethyl-1-(methylamino)-1-oxobutan-2-yl)-3-phenyl-5,6,7,8-tetrahydroimidazo[1,5-a]pyrazine-1-carboxamide] | 10 to 100 nM
CNC(=O)[C@@H](NC(=O)c1nc(-c2ccccc2)n2c1CN(S(=O)(=O)c1ccc(F)cc1)CC2)C(C)(C)C [Compound 93, (S)-N-(3,3-dimthyl-1-(methylamino)-1-oxobutan-2-yl)-7-(4-fluorophenylsulfonyl)-3-phenyl-5,6,7,8-tetrahydroimidazo[1,5-a]pyrazine-1-carboxamide] | 10 to 100 nM
CNC(=O)[C@@H](NC(=O)c1nc(/C=C/CN2CCCC2)n2c1CN(C)CC2)C(C)(C)C [Compound 288, (S,E)-N-(3,3-dimethyl-1-(methylamino)-1-oxobutan-2-yl)-7-methyl-3-(3-(pyrrolidin-1-yl)prop-1-enyl)-5,6,7,8-tetrahydroimidazo[1,5-a]pyrazine-1-carboxamide] | 0.1 to 10 nM
COC(=O)N1CCn2c(-c3ccccc3)nc(C(=O)N[C@H](C)C3CCCCC3)c2C1 [Compound 185, (R)-methyl 1-(1-cyclohexylethylcarbamoyl)-3-phenyl-5,6-dihydroimidazo[1,5-a]pyrazine-7(8H)-carboxylate] | 10 to 100 nM
CNC(=O)[C@@H](NC(=O)c1nc(-c2ccsc2)n2c1CN(S(=O)(=O)c1ccc(F)cc1)CC2)C(C)(C)C [Compound 109, (S)-N-(3,3-dimethyl-1-(methylamino)-1-oxobutan-2-yl)-7-(4-fluorophenylsulfonyl)-3-(thiophen-3-yl)-5,6,7,8-tetrahydroimidazo[1,5-a]pyrazine-1-carboxamide] | 10 to 100 nM
CCN1CCn2c(-c3ccccc3)nc(C(=O)N[C@H](C(=O)NC)C(C)(C)C)c2C1 [Compound 149, (S)-N-(3,3-dimethyl-1-(methylamino)-1-oxobutan-2-yl)-7-ethyl-3-phenyl-5,6,7,8-tetrahydroimidazo[1,5-a]pyrazine-1-carboxamide] | 10 to 100 nM
CCN1CCn2c(-c3ccccc3)nc(C(=O)NC3C4(C)CCC(C4)C3(C)C)c2C1 (stereo not shown) [Compound 144, 7-ethyl-3-phenyl-N-(1,3,3-trimethylbicyclo[2.2.1]heptan-2-yl)-5,6,7,8-tetrahydroimidazo[1,5-a]pyrazine-1-carboxamide] | 0.1 to 10 nM
CNC(=O)[C@@H](NC(=O)c1nc(-c2ccccc2)n2c1CN(C(=O)C(C)(C)C)CC2)C(C)(C)C [Compound 190, (S)-N-(3,3-dimethyl-1-(methylamino)-1-oxobutan-2-yl)-3-phenyl-7-pivaloyl-5,6,7,8-tetrahydroimidazo[1,5-a]pyrazine-1-carboxamide] | 10 to 100 nM
CNC(=O)[C@@H](NC(=O)c1nc(-c2ccccc2)n2c1CN(c1cccc(Cl)n1)CC2)C(C)(C)C [Compound 299, (S)-7-(6-chloropyridin-2-yl)-N-(3,3-dimethyl-1-(methylamino)-1-oxobutan-2-yl)-3-phenyl-5,6,7,8-tetrahydroimidazo[1,5-a]pyrazine-1-carboxamide] | 10 to 100 nM
CNC(=O)[C@@H](NC(=O)c1nc(-c2ccc(C(C)(C)C)cc2)n2c1CN(C)CCC2)C(C)(C)C [Compound 414, (S)-3-(4-tert-butylphenyl)-N-(3,3-dimethyl-1-(methylamino)-1-oxobutan-2-yl)-8-methyl-6,7,8,9-tetrahydro-5H-imidazo[1,5-a][1,4]diazepine-1-carboxamide] | 10 to 100 nM
CC(C)CN1CCn2c(-c3ccccc3)nc(C(=O)NC3CCCCC3)c2C1 [Compound 165, N-cyclohexyl-7-isobutyl-3-phenyl-5,6,7,8-tetrahydroimidazo[1,5-a]pyrazine-1-carboxamide] | 0.1 to 10 nM
CNC(=O)[C@H](CC(C)C)NC(=O)c1nc(-c2ccc(Cl)c(F)c2)n2c1CN(C)CC2 [Compound 277, (S)-3-(4-chloro-3-fluorophenyl)-7-methyl-N-(4-methyl-1-(methylamino)-1-oxopentan-2-yl)-5,6,7,8-tetrahydroimidazo[1,5-a]pyrazine-1-carboxamide] | 10 to 100 nM
CC(C)CN1CCn2c(-c3ccccc3)nc(C(=O)N[C@@H](CO)C(C)(C)C)c2C1 [Compound 68, (R)-N-(1-hydroxy-3,3-dimethylbutan-2-yl)-7-isobutyl-3-phenyl-5,6,7,8-tetrahydroimidazo[1,5-a]pyrazine-1-carboxamide] | 0.1 to 10 nM
CNC(=O)[C@@H](NC(=O)c1nc(-c2ccc(C(F)(F)F)cc2)n2c1CNCC2)C(C)(C)C [Compound 5, (S)-N-(3,3-dimethyl-1-(methylamino)-1-oxobutan-2-yl)-3-(4-(trifluoromethyl)phenyl)-5,6,7,8-tetrahydroimidazo[1,5-a]pyrazin-1-carboxamide] | 10 to 100 nM
CNC(=O)[C@@H](NC(=O)c1nc(-c2cc(C(F)(F)F)ccc2F)n2c1CN(C)CC2)C(C)(C)C [Compound 245, (S)-N-(3,3-dimethyl-1-(methylamino)-1-oxobutan-2-yl)-3-(2-fluoro-5-(trifluoromethyl)phenyl)-7-methyl-5,6,7,8-tetrahydroimidazo[1,5-a]pyrazine-1-carboxamide] | 10 to 100 nM
CNC(=O)[C@@H](NC(=O)c1nc(-c2cc(Cl)ccc2F)n2c1CN(C)CC2)C(C)(C)C [Compound 246, (S)-3-(5-chloro-2-fluorophenyl)-N-(3,3-dimethyl-1-(methylamino)-1-oxobutan-2-yl)-7-methyl-5,6,7,8-tetrahydroimidazo[1,5-a]pyrazine-1-carboxamide] | 10 to 100 nM
CC(C)CN1CCn2c(-c3ccccc3)nc(C(=O)N[C@H](CO)C(C)(C)C)c2C1 [Compound 60, (S)-N-(1-hydroxy-3,3-dimethylbutan-2-yl)-7-isobutyl-3-phenyl-5,6,7,8-tetrahydroimidazo[1,5-a]pyrazine-1-carboxamide] | 10 to 100 nM
Cc1ccc(-c2nc(C(=O)N[C@H](c3nc(C)no3)C(C)(C)C)c3n2CCCN(C(C)C)C3)c(F)c1 [Compound 523, (S)-N-(2,2-dimethyl-1-(3-methyl-1,2,4-oxadiazol-5-yl)propyl)-3-(2-fluoro-4-methylphenyl)-8-isopropyl-6,7,8,9-tetrahydro-5H-imidazo[1,5-a][1,4]diazepine-1-carboxamide] | 10 to 100 nM
Cc1noc([C@@H](NC(=O)c2nc(-c3ccccc3)n3c2CN(C(C)C)CC3)C(C)(C)C)n1 [Compound 89, (S)-N-(2,2-dimethyl-1-(3-methyl-1,2,4-oxadiazol-5-yl)propyl)-7-isopropyl-3-phenyl-5,6,7,8-tetrahydrimidazo[1,5-a]pyrazine-1-carboxamide] | 0.1 to 10 nM
CNC(=O)[C@@H](NC(=O)c1nc(-c2ccccc2)n2c1CN(C(C)C)CC2)C(C)(C)C [Compound 85, (S)-N-(3,3-dimethyl-1-(methylamino)-1-oxobutan-2-yl)-7-isopropyl-3-phenyl-5,6,7,8-tetrahydroimidazo[1,5-a]pyrazine-1-carboxamide] | 10 to 100 nM

Reference: patent US8431565B2 (priority 2007, dated 2013)
